Active and inactive are the calls of the source. No cut-off for these calls is given here. Non-standard residues stand in square brackets, D forms with d. Residues, ends and D or L forms follow the SMILES beside them. *: point of attachment. X1 = CC(CCC(=O)*)(C(=O)O)c1ccccc1; Nphe = O=C(O)CNCc1ccccc1
Columns and labels:
[1] = molecular target: T1, NAD-dependent protein deacylase sirtuin-5, mitochondrial (Homo sapiens, UniProt Q9NXA8); assay: Inhibition of SIRT5 (unknown origin)
Target sequence in this assay (Q9NXA8 whole entry, the tested form may be a part): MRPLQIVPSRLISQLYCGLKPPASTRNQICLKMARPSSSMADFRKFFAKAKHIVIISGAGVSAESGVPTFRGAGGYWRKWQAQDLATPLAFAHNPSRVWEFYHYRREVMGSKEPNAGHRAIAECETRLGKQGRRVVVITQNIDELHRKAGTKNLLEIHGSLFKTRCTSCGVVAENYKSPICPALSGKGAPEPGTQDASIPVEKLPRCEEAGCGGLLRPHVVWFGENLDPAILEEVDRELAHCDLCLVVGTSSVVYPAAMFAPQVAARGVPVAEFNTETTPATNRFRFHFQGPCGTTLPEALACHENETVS

[2] = molecular target: T1, NAD-dependent protein deacylase sirtuin-5, mitochondrial; assay: Inhibition of human recombinant SIRT5 (34 to 269 residues) using 33 uM Ac-Leu-Gly-Ser-Lys(Su)-AMC as substrate incubated for 1 hr in presence of 400 uM NAD+ by fluorescence based analysis
Target sequence in this assay (Q9NXA8 whole entry, the tested form may be a part): as above

[3] = molecular target: T1, NAD-dependent protein deacylase sirtuin-5, mitochondrial; assay: Inhibition of human recombinant SIRT5 (34 to 269 residues) using Ac-Leu-Gly-Ser-Lys(Su)-AMC as substrate incubated for 1 hr in presence of 800 uM NAD+ by fluorescence based analysis
Target sequence in this assay (Q9NXA8 whole entry, the tested form may be a part): as above

[4] = molecular target: T1, NAD-dependent protein deacylase sirtuin-5, mitochondrial; assay: Competitive inhibition of human recombinant SIRT5 (34 to 269 residues) assessed as increase in Km with constant Vmax using varying Ac-Leu-Gly-Ser-Lys(Su)-AMC as substrate incubated for 1 hr in presence of NAD+ by Lineweaver-Burk plot analysis
Target sequence in this assay (Q9NXA8 37-310 limits assumed): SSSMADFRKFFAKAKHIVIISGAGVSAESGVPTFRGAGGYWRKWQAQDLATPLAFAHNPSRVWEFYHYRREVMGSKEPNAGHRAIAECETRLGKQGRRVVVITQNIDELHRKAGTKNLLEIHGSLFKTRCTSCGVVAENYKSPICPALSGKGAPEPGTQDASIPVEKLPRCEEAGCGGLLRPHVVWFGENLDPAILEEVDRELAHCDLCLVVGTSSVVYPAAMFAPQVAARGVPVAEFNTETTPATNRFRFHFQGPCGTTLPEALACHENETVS

[5] = molecular target: T2, NAD-dependent protein deacetylase sirtuin-2 (Homo sapiens, UniProt Q8IXJ6); assay: Inhibition of recombinant SIRT2 (unknown origin) using Ac-Glu-Thr-Asp-Lys(Dec)-AMC as substrate in presence of NAD+
T2 sequence (Q8IXJ6 whole entry): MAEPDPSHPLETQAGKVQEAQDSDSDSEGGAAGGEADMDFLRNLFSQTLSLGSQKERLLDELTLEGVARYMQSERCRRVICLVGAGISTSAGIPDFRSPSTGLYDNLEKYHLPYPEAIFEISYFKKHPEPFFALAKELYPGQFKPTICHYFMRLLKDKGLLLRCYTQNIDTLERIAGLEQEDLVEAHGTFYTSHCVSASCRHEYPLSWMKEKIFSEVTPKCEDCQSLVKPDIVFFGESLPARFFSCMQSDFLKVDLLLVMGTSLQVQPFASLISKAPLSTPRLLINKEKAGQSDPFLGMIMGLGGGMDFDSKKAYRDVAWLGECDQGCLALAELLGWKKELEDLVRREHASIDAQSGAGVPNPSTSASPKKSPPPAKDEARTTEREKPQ

[6] = molecular target: T1, NAD-dependent protein deacylase sirtuin-5, mitochondrial; assay: Inhibition of human recombinant SIRT5 (34 to 269 residues) using 100 uM Ac-Leu-Gly-Ser-Lys(Su)-AMC as substrate incubated for 1 hr in presence of 400 uM NAD+ by fluorescence based analysis
Target sequence in this assay (Q9NXA8 whole entry, the tested form may be a part): as the sequence (Q9NXA8 whole entry, the tested form may be a part) above

[7] = molecular target: T1, NAD-dependent protein deacylase sirtuin-5, mitochondrial; assay: Inhibition of human recombinant SIRT5 (34 to 269 residues) using Ac-Leu-Gly-Ser-Lys(Su)-AMC as substrate incubated for 1 hr in presence of 50 uM NAD+ by fluorescence based analysis
Target sequence in this assay (Q9NXA8 whole entry, the tested form may be a part): as above

[8] = molecular target: T1, NAD-dependent protein deacylase sirtuin-5, mitochondrial; assay: Inhibition of human recombinant SIRT5 (34 to 269 residues) using Ac-Leu-Gly-Ser-Lys(Su)-AMC as substrate incubated for 1 hr in presence of 100 uM NAD+ by fluorescence based analysis
Target sequence in this assay (Q9NXA8 whole entry, the tested form may be a part): as above

[9] = molecular target: T1, NAD-dependent protein deacylase sirtuin-5, mitochondrial; assay: Inhibition of human recombinant SIRT5 (34 to 269 residues) using Ac-Leu-Gly-Ser-Lys(Su)-AMC as substrate incubated for 1 hr in presence of 200 uM NAD+ by fluorescence based analysis
[10] = molecular target: T1, NAD-dependent protein deacylase sirtuin-5, mitochondrial; assay: Stabilization of recombinant human SIRT5 (34 to 269 residues) assessed as melting temperature at 100 uM incubated for 10 mins in presence of P16 as substrate and NAD+ by fluorescence based thermal shift assay (reference value: 63.27 degC)
Target sequence in this assay (Q9NXA8 37-310 limits assumed): as the sequence (Q9NXA8 37-310 limits assumed) above

[11] = molecular target: NAD-dependent protein deacylase sirtuin-6 (Homo sapiens, UniProt Q8N6T7); assay: Inhibition of recombinant SIRT6 (unknown origin) using Ac-Ile-Arg-Ile-Lys(Su)-AMC as substrate in presence of NAD+
[12] = molecular target: T1, NAD-dependent protein deacylase sirtuin-5, mitochondrial; assay: Stabilization of recombinant human SIRT5 (34 to 269 residues) assessed as melting temperature at 50 uM incubated for 10 mins in presence of P16 as substrate and NAD+ by fluorescence based thermal shift assay (reference value: 63.27 degC)
Target sequence in this assay (Q9NXA8 37-310 limits assumed): as above

[13] = molecular target: T1, NAD-dependent protein deacylase sirtuin-5, mitochondrial; assay: Inhibition of human recombinant SIRT5 (34 to 269 residues) using Ac-Leu-Gly-Ser-Lys(Su)-AMC as substrate incubated for 1 hr in presence of 400 uM NAD+ by fluorescence based analysis
[14] = molecular target: T1, NAD-dependent protein deacylase sirtuin-5, mitochondrial; assay: Inhibition of human recombinant SIRT5 (34 to 269 residues) using 11 uM Ac-Leu-Gly-Ser-Lys(Su)-AMC as substrate incubated for 1 hr in presence of 400 uM NAD+ by fluorescence based analysis
[15] = molecular target: T3, NAD-dependent protein deacetylase sirtuin-1 (Homo sapiens, UniProt Q96EB6); assay: Inhibition of recombinant SIRT1 (unknown origin) using Ac-Arg-Leu-Ile-Lys(Ac)-AMC as substrate in presence of NAD+
T3 sequence (Q96EB6 whole entry): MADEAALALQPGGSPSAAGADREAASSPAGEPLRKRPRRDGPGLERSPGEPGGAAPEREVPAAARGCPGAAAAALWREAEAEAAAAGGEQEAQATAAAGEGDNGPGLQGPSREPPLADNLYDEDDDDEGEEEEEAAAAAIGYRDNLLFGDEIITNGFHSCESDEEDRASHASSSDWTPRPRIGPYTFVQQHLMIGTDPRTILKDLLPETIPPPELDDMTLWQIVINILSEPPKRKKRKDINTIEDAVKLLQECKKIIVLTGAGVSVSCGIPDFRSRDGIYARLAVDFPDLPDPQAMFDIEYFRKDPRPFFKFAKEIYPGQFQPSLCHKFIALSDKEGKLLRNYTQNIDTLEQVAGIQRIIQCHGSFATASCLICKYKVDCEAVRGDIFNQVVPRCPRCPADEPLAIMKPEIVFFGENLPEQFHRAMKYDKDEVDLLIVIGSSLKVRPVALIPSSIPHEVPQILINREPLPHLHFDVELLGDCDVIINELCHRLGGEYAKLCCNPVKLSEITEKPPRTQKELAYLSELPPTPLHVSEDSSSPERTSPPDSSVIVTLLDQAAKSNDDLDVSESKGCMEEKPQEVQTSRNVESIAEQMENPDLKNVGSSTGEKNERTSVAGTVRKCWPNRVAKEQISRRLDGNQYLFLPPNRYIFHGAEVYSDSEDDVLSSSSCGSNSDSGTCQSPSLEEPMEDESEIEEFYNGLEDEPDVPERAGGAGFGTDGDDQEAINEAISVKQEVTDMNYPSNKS

[16] = molecular target: T1, NAD-dependent protein deacylase sirtuin-5, mitochondrial; assay: Inhibition of human recombinant SIRT5 (34 to 269 residues) using 300 uM Ac-Leu-Gly-Ser-Lys(Su)-AMC as substrate incubated for 1 hr in presence of 400 uM NAD+ by fluorescence based analysis
[17] = molecular target: T4, NAD-dependent protein deacetylase sirtuin-3, mitochondrial (Homo sapiens, UniProt Q9NTG7); assay: Inhibition of recombinant SIRT3 (unknown origin) using Ac-Arg-Leu-Ile-Lys(Ac)-AMC as substrate in presence of NAD+
T4 sequence (Q9NTG7 whole entry): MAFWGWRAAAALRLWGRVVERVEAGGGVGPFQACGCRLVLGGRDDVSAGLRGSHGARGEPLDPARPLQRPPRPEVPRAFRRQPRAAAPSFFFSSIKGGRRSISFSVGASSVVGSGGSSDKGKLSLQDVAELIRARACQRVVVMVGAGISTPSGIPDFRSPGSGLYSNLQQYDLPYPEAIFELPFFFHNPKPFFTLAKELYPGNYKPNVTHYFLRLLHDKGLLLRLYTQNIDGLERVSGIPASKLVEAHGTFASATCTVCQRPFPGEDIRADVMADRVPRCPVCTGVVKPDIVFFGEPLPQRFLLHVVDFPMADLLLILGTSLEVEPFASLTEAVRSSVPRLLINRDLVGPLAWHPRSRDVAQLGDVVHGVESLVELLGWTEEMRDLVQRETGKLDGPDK

[18] = molecular target: T1, NAD-dependent protein deacylase sirtuin-5, mitochondrial; assay: Inhibition of human recombinant SIRT5 (34 to 269 residues) using Ac-Leu-Gly-Ser-Lys(Su)-AMC as substrate in presence of NAD+ by fluorescence based analysis; conditions: read-out: IC50

Sequence of NAD-dependent protein deacylase sirtuin-6 (Q8N6T7 whole entry, the tested form may be a part): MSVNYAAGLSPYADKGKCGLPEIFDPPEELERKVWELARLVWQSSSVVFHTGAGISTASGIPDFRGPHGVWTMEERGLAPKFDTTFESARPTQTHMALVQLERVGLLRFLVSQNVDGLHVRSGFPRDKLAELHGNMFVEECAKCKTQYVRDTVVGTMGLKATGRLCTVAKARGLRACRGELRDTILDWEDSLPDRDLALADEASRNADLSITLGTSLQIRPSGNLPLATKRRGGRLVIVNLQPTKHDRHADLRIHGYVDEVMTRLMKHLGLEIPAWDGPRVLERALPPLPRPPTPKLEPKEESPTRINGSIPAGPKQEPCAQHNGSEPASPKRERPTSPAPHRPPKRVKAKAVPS

Ki [1]	IC50 [1]	Structure (SMILES)	IC50 [2]	IC50 [3]	inhibition [4]	IC50 [5]	IC50 [6]	IC50 [7]	IC50 [8]	IC50 [9]	Tm [10]	IC50 [11]	Tm [12]	IC50 [13]	IC50 [14]	IC50 [15]	IC50 [16]	IC50 [17]	IC50 [18]
4.3 µM		CC(C)C[C@H](NC(=O)[C@@H](NC(=O)CNCc1ccccc1)C(C)C)C(=O)N[C@@H](CCCCNC(=O)CCC(C)(C(=O)O)c1ccccc1)C(=O)N[C@@H](CCC(=O)O)C(=O)N[C@@H](Cc1ccc(O)cc1)C(=O)NCC(=O)N[C@H](C(N)=O)C(C)C (stereo partly specified) (H-[Nphe]VLK(X1)EYGV-NH2)																	
		O=C(O)CCNC(=S)NCCCNc1nc(CCc2c[nH]c3ccccc23)ncc1C(=O)O	57 µM	13.7 µM	Active	> 600 µM	58.9 µM	7.62 µM	11.9 µM	10.8 µM	64.2 °C	> 600 µM	64 °C	10.2 µM	40.6 µM	> 600 µM	77.6 µM	> 600 µM	4.4 µM
		CCOC(=O)c1cnc(NCc2ccccc2)nc1NCCCNC(=S)NCCC(=O)O	65.3 µM	17.5 µM	Active	> 600 µM	98.7 µM	17.8 µM	25.3 µM	18.3 µM	64.1 °C	> 600 µM	63.8 °C	19.1 µM	48.6 µM	> 600 µM	100 µM	> 600 µM	3 µM
	0.11 µM	O=C(O)CCNC(=S)NCCCC[C@H](NS(=O)(=O)c1cccc(F)c1)C(=O)N[C@@H](Cc1c[nH]c2ccccc12)C(=O)NC1CCC1																	

Reference: ChEMBL document CHEMBL4828753, “Discovery of new human Sirtuin 5 inhibitors by mimicking glutaryl-lysine substrates” (Eur J Med Chem, 2021)
